Source: US5521315A, “Olefin substituted long chain compounds” (priority 1993, dated 1996)
Several values for one entry are separate records, joined by “and”; a condition that tells them apart may be missing. Identical values can stand only once.

Columns and labels:
Saccharomyces cervisiae = test: Yeast growth inhibition assay; format: cell-based; settings: FIG. 14
Protocol: Some of the inventive compounds are effective for inhibiting yeast cell growth. This effect can be assayed by measuring growth of the yeast strain Saccharomyces cervisiae. A control yeast stain Saccharomyces cervisiae (BIO 101, Inc.) is grown overnight in YEPD broth at 30° C. A one to hundred dilution of the yeast culture is made with fresh YEPD broth. 100 μl Aliquots of the diluted culture are distributed into 96-wells titer plates. 100 μl Aliquots of drug is diluted in YEPD broth were then added to the wells. The titer plates are incubated at room temperature with continuous shaking. The cell density of the individual cultures are determined using a microplate reader with a A630 filter. The A630 of the individual yeast cultures are compared to control samples without adding drug. This assay is predictive of direct antimicrobial, particularly yeast and fungal, activity of the drugs studied.
This example illustrates the effects of CT2501R (a reference compound), CT2536R, CT2536S, CT1596R, and CT1596S of yeast growth (Saccromyces cerevasie) in the presence or absence of drug. These assays measure anti-yeast and anti-fungal activity of the drugs tested. […] Therefore either the R enantiomer, the S enantiomer or a racemic mixture of CT2536 are potential topical or systemic antimicrobial drugs.

mast cell degranulation = test: Serotonin release assay (inhibition of mast cell degranulation); format: cell-based; design: INCORP / TOTAL: unit not given here; settings: 50 μM; for RELEASE-SPONT: average corrected for spontaneous release; for AVERAGE % RELEASE: average of duplicates; for % RELEASE / INCORP / RELEASE / RELEASE X2 / TOTAL: duplicate wells; for inhibition at 50 µM: Mast cell
Description: A serotonin release assay is utilized to study the utility of the inventive compounds for treatment of asthma and allergy. […] This assay measures mast cell degranulation, which is an early phase reaction to allergen challenge. Mast cells grown in tissue culture are first loaded with ^3 H serotonin, which is incorporated into the granules in the cells. The mast cells are sensitized with antigen specific monoclonal IgE, and then triggered to degranulate with the specific antigen (dinitorphenolbound to BSA (DNP)). When the cells degranulate, ^3 H Serotonin is released into the medium, and can be measured directly. The ability of the inventive compounds to inhibit the degranulation response is determined by the decrease in ^3 H Serotonin released in the presence of drug and is represented as % INHIBITION.
Specifically, the serotonin release assay seeds 2×10^5 cells in 0.5 ml medium in duplicate for spontaneous release, IgE+DNP, IgE+DNP+EtOH (vehicle control), and inventive compounds. […] The cells are incubated for 18 hours at 37° C. in 5% CO2, washed twice with 0.5 ml Isotonic Buffer (25 mM disodium PIPES pH 7.1,100 mM NaCl, 5 mM KCl, 5 mM glucose, 0.4 mM MgCl2, 1mM CaCl2, 0.1% BSA), and sterile filtered. 250 μl Isotonic Buffer is added per well and the plates are equilibrated in an incubator for about 10 min. Drug is added and cells are activated with 40 ng/ml DNP-BSA (1 mg/ml Diluted 1:200 in Isotonic Buffer) for 45 minutes using 2 μl/250 μl. Spontaneous release is determined in incubated cells with 250 μl Isotonic Buffer for 45 minutes and the reaction is stopped by removing supernatant and centrifuging at ~4000 rpm in microfuge for 15 seconds to remove any detached cells. Released radiolableled serotonin is counted. To determine amount of ^3 H-serotonin incorporated into the cells, (a) remove Isotonic Buffer and lyse cells by adding 250 μl 1% Triton-X100 in PBS, (b) add to 5 ml scintillation fluid, (c) wash 2× with Triton/PBS, and (d) add washes to scintillation tube. Percent serotonin release is calculated by dividing the amount of released serotonin by the sum of incorporated plus released serotonin and correcting for spontaneous released serotonin. Compound inhibition is calculated by dividing the percent serotonin release in the presence of a compound by the percent serotonin release in the absence of the compound.
This assay is described above and provides an in vitro model for an allergy and asthma therapeutic product.

[1] = system: PBMC (peripheral blood mononuclear cells); test: Two-way mixed lymphocyte reaction (MLR), proliferation of PBMC to allogeneic stimulation; format: cell-based, human; settings: FIGS. 3 and 4
Description: Various in vitro assays can be used to measure effects of the inventive compounds to module immune activity and have antitumor activity using a variety of cellular types. For example, a mixed lymphocyte reaction (MLR) provides a valuable screening tool to determine biological activity of each inventive compound. In the MLR, PBMCs (peripheral blood mononuclear cells) are obtained by drawing whole blood from healthy volunteers in a heparinized container and diluted with an equal volume of hanks balanced salt solution (HBSS). This mixture is layered on a […] density gradient, such as a Ficoll-Hypaque® gradient (specific gravity 1.08), and centrifuged at 1000×g for 25 minutes at room temperature or cooler. PBMC are obtained from a band at a plasma-Ficoll interface, separated and washed at least twice in a saline solution, such as HBSS. Contaminating red cells are lysed, such as by ACK lysis for 10 min at 37° C., and the PBMCs are washed twice in HBSS. The pellet of purified PBMCs is resuspended in complete medium, such as RPMI 1640 plus 20% human inactivated serum. Proliferative response of PBMC to allogeneic stimulation is determined in a two-way MLR performed in a 96-well microliter plate. Briefly, approximately 10^5 test purified PBMC cells in […] complete medium are co-cultured with approximately 10^5 autologous (control culture) or allogeneic (stimulated culture) PBMC cells, wherein the allogeneic cells are from HLA disparate individuals. Varying doses of compounds (drug) are added at the time of addition of cells to the microtiter plate. The cultures are incubated for 6 days at 37° C. in a 5% CO2 atmosphere. At the conclusion of the incubation tritiated thymidine is added (for example, […] of 40 to 60 Ci/mmole) and proliferation determined by liquid scintillation counting.
This example illustrates a mixed lymphocyte reaction assay of inventive compounds by showing the IC50 value of each compound in this assay and a dose response of several compounds to illustrate an IC50 determination.

human stromal cells = test: PDGF-stimulated proliferation of human stromal cells; format: cell-based; settings: 50 ng/ml PDGF-BB; drug one hour prior; FIGS. 15 and 16; read-out: IC50, stromal cell proliferation
Protocol: (§1) This assay is an in vitro model for restenosis and treatment of atherosclerosis and coronary artery disease. Stromal cells were starved in serum-free media for one day and then stimulated with 50 ng/ml PDGF-BB. The drugs were added at the indicated concentrations one hour prior to PDGF stimulation. Tritiated thymidine was added for one day at the time of PDGF stimulation and the cells were harvested and counted by liquid scintillation counting 24 hrs later.
Another assay for measuring activity of the inventive compounds involves determining PDGF (platelet derived growth factor) proliferative response using human-derived stromal cells. […] Two to three days later, the stromal cells are starved in serum-free media. Twenty four hours later, the cells are treated with a stimulating agent, such as PDGF-AA, PDGF-BB or basic FGF (fibroblast growth factor) with or without IL-1α or TNF, and tritiated thymidine. Cell proliferation is determined by liquid scintillation counting.
as §1

murine thymocyte = test: Murine thymocyte stimulated by ConA and IL-2 (T cell immune suppression); format: cell-based; settings: FIGS. 8 and 9
Protocol: A thymocyte costimulator assay is conducted to evaluate the inventive compounds to inhibit activation and proliferation of thymocytes caused by stimulation with Con A and interleukin-1 (IL-1), or […]. Thymuses are obtained from mice (e.g., female Balb/C mice) and the thymuses are removed and dissociated into culture media (e.g., RPMI 1640 without serum supplementation). The dissociated thymus tissue and cell suspension is transferred to centrifuge tubes and allowed to settle, washed with HBSS and resuspended in serum-supplemented culture media (e.g., RPMI 1640 with 10% fetal calf serum). Any contaminating red cells are lysed, and viable cells are resuspended and counted. Thymocytes are plated (e.g., 96-well plates at a density of 2×10^5 cells/well) and a stimulating agent, such as Con A, IL-1 (e.g., IL-1α) or IL-2 is added to the well. The cells are incubated for 4 days at 37° C. On the fourth day, the cells are pulsed with tritiated thymidine and cell proliferation determined. Inventive compounds are added at the time of stimulating agent addition.
A third assay measures an ability of an inventive compound to inhibit IL-2-induced proliferation of murine thymocytes. Thymus glands are obtained from 4-6 week old mice and plated as a single cell suspension into flat bottomed wells in RPMI 1640 medium supplemented with 10% fetal calf serum. The inventive compounds are added to appropriate wells and the cells are incubated for 1-2 hrs. Concanavilin A (ConA, 0.25 mg/ml) and […] (20 ng/ml) are added and the plates are incubated for 4 days. Cell proliferation is determined as above.
FIG. 8 compares T cell immune suppression data of thirteen inventive compounds by comparing their IC50 values in a murine thymocyte stimulated by ConA and IL-2 in vitro model.

[2] = system: CMV promoter activity in transformed (adenovirus) cells; test: CMV promoter assay (gene transcription and translation; cytotoxicity in transformed cells); format: cell-based
Description: (§2) FIG. 18 illustrates data regarding proliferative activity of various inventive compounds for inducting CMV promoter activity. The CMV promoter assay measures gene transcription and translation activity wherein any active compounds will have cytotoxic activity to inhibit cellular protein synthesis machinery in transformed (adenovirus) cells.
as §2, with “This example” for “FIG. 18”

[3] = system: transformed cells (Ras 3T3) and normal 3T3 cells; test: Cytotoxicity in transformed cells (Ras 3T3) versus normal 3T3 cells; format: cell-based; settings: LD50 comparison; FIG. 17
Protocol: Each inventive compound is investigated for cytotoxicity to determine appropriate doses for biological activity assays and to prevent cytotoxic reactions in in vitro assays when characterizing activity. Cells (e.g., NIH-3T3, Ras transformed 3T3 cells, malignant melanoma LD2 cells, etc.) are added to microtiter plates and drug is added about two days after plating. Cell viability is determined using a fluorescent viability stain (e.g., 2',7'-bis-(2-carboroxyethyl)-5-(and -6)-carboxyfluorescein acetoxymethyl ester, BCECF excitation 488 nm and emission 525 nm) 24, 48 or 72 hours after addition of the drug.
This example illustrates a comparison of cytotoxicity determinations for CT1534 and CT1539 in transformed cells (Ras 3T3) and in normal 3T3 cells to determine the in vitro LD50 value in both cell types and to look for differential cytotoxicity effects between the cell types.

SMILES | inhibition of yeast growth (Saccharomyces cervisiae) | % INHIBITION (mast cell degranulation; Table 4) [%] | RELEASE-SPONT (mast cell degranulation; Table 4) [%] | AVERAGE % RELEASE (mast cell degranulation; Table 4) [%] | % RELEASE (mast cell degranulation; Table 4) | INCORP (mast cell degranulation; Table 4) | RELEASE (mast cell degranulation; Table 4) | RELEASE X2 (mast cell degranulation; Table 4) | TOTAL (mast cell degranulation; Table 4) | % INHIBITION (mast cell degranulation; Table 5) [%] | IC50 [1] [µM] | IC50 (human stromal cells) [µM] | T cell immune suppressing activity (murine thymocyte) | inhibition at 50 µM (mast cell degranulation; Table 4) [%] | IC50 [2] [µM] | differential cytotoxicity, transformed vs normal cells [3]
CC(C)=CCCC(C)CCn1c(=O)c2c(ncn2C)n(C)c1=O (racemic) [CT1596] | enantiomeric selectivity |  |  |  |  |  |  |  |  |  |  |  |  |  |  | 
C=CCCCCCCCCCn1c(=O)c2c(ncn2COC(=O)C(C)(C)C)n(C)c1=O [CT1403, 1-(10-undecenyl)-3-methyl-7-methylpivaloylxanthine] |  | 84.23 | 1.26 | 17.82 | 17.37% and 18.27% | 23246 and 25691 | 2443 and 2872 | 4886 and 5744 | 28132 and 31435 | 84.23 | 10 | < 10 |  |  |  | 
C=CCCCCCCCn1c(=O)c2c(ncn2COC(=O)C(C)(C)C)n(C)c1=O [CT1411, 1-(8-nonenyl)-3-methyl-7-methylpivaloylxanthine] |  | 87.89 | 0.97 | 17.53 | 16.79% and 18.27% | 24627 and 24663 | 2484 and 2756 | 4968 and 5512 | 29595 and 30175 | 87.89 |  | < 10 | potent immune suppressing activity |  |  | 
C=CCCCCn1c(=O)c2c(ncn2C)n(C)c1=O [CT1539, 1-(5-hexenyl)-3,7-dimethylxanthine] |  |  | 5.15 | 21.71 |  |  |  |  |  |  |  |  |  | 35.8 | > 500 | equally cytotoxic for both cell types
CC(C)=CCC[C@@H](C)CCCn1c(=O)c2c(ncn2C)n(C)c1=O [CT2536R, 1-(4-(R)-Methyl-8-methylnon-7-enyl)-3,7-dimethylxanthine] | strongly inhibited yeast growth |  | -0.55 | 16.00 |  |  |  |  |  |  |  |  |  | 107 | 30 | 
CC(C)=CCC[C@H](C)CCCn1c(=O)c2c(ncn2C)n(C)c1=O [CT2536S, 1-(4-(S)-Methyl-8-methylnon-7-enyl)-3,7-dimethylxanthine] | strongly inhibited yeast growth |  | 0.21 | 16.76 |  |  |  |  |  |  |  |  |  | 97.4 | 30 | 
